Consider 1 molecule from EPA's ToxValDB 9.5 (doi:10.2903/j.efsa.2009.195r).

In one series the test system is Daphnia magna. The note with it: chronic/long-term; duration: 21 days; reproduction.
Another series relates to Anas platyrhynchos. The settings on record: oral, mortality.
The test system of another series is Apis mellifera. The settings on record: acute; duration: 48 hours; oral; unspecified; mortality.

≈ marks a conversion by molar mass, not a printed value.

`COC(=O)c1cccc(C)c1S(=O)(=O)NC(=O)Nc1nc(OCC(F)(F)F)nc(N(C)C)n1` [Triflusulfuron-methyl]: the LC50 in the series on Oncorhynchus mykiss (acute, duration: 96 hours, mortality) was 730 µg/mL (≈ 1480 µM); in the series with Anas platyrhynchos (short-term, feed) it was more than 1540 mg/kg-day; with Tagia sp. (acute, duration: 14 days, mortality), 1000 mg/kg. The NOEC in the series with Oncorhynchus mykiss (chronic/long-term, duration: 97 days, growth) was 57.7 mg/L; in the series on Daphnia magna it was 11 mg/L; in the series on Colinus virginianus (reproduction developmental) it was 27.6 mg/kg-day; in the series on Tagia sp. (chronic/long-term, duration: 56 days), 250 mg/kg. Further, the LD50 with Rattus norvegicus (acute, oral, mortality) was more than 5000 mg/kg-day; with Anas platyrhynchos (acute, unspecified), more than 2250 mg/kg-day; in the series on Colinus virginianus (acute, oral, mortality) it was more than 2250 mg/kg-day; with Apis mellifera it was more than 100 µg/piece. Further, the NOAEL amounted to 4.06 mg/kg-day with Rattus norvegicus (chronic, duration: 2 years, oral, diet, body weight); 120 mg/kg-day with Rattus norvegicus (developmental, development); 5.8 mg/kg-day in the series with Rattus norvegicus (reproduction developmental, body weight); 6.6 mg/kg-day with Rattus norvegicus (subchronic, duration: 90 days, oral, body weight).
